# Experimental data published in patent US20220152080A1 (priority 2019, published 2022).
# Key:
# [1] = system: vRNP nuclear export (viral NP protein), WSN/H1N1; assay type: cell-based, influenza A virus
# [2] = system: RanBP1 (Crm1 export pathway); assay type: cell-based
# [3] = system: vRNP-M1 interaction; assay type: cell-based, influenza A virus
# [4] = system: GSK-3β; assay type: cell-based
# [5] = system: RSK1; settings: in vitro; cited from earlier work
# [6] = system: vRNPs of WSN/H1N1, PR8M/H1N1, pdm09Hamburg/H1N1, Panama/H3N2, KAN-1/H5N1, Anhui/H7N9, SC35M/H7N7, B/Lee; assay type: cell-based, influenza A and B viruses; settings: 15 μM, treated 3 h p.i., fixed 9 h or 12 h p.i., MOI 5
# [7] = system: WSN/H1N1; assay type: cell-based, influenza A virus; settings: read-out: EC50 (progeny virus titers)
# [8] = system: ERK1/2; assay type: cell-based
# [9] = system: WSN/H1N1, PR8M/H1N1, pdm09Hamburg/H1N1, Panama/H3N2, KAN-1/H5N1, Anhui/H7N9, SC35M/H7N7, B/Lee; assay type: cell-based, influenza A and B viruses; settings: 15 μM, 24 h p.i., MOI 0.01, A549 or MDCKII cells, DMSO control = 100%
# [10] = system: RSK1; assay type: cell-based
# [11] = system: viral NP protein (Serine residues 269 and 392); assay type: cell-based, influenza A virus
# [12] = target: p90 ribosomal S6 kinase (N-terminal kinase domain); settings: cited from earlier work
# [13] = system: RSK substrate p140; settings: not that of RSK or RSK upstream kinases even at 100 μM; cited from earlier work
# [14] = system: MCF-7; settings: cited from earlier work
# [15] = system: ERK1/2; experiment: TPA stimulation: nuclear localization of ERK1/2 in A549 cells; assay type: cell-based; settings: A549, TPA-stimulated, 1 h; unstimulated 27.99%±1.97%
# Procedure: (§1) (A,C) A549 cells were stimulated with TPA (200 nM). The solvent DMSO served as negative control. After 1 h the cells were fixed and cellular localization of RSK2 or ERK1/2 (Alexa-561) was analyzed by epifluorescence microscopy. Nuclei were stained with Dapi. Dashed squares indicate zoom-in areas. Shown are representative epifluorescence microscopy pictures of single focal planes. Results of one out of three independent experiments are shown. Scale bar represents 50 μm.(B,D) Quantification of the cellular localization of RSK2 or ERK1/2 from (A,C). 15 epifluorescence microscopy pictures of each sample were analyzed in terms of the RSK2 localization using the ImageJ “Intensity Ratio Nuclei Cytoplasm Tool”. Results are depicted as means±SD of three independent experiments. Statistical significance was analyzed by unpaired t-test with Welch's correction (**p≤0.01).
# (§2) To exclude unspecific staining of RSK2 and ERK1/2 the Raf/MEK/ERK-pathway was stimulated with TPA. It is known that the incubation with TPA leads to the activation of the Raf/MEK/ERK-pathway resulting in the nuclear localization of ERK1/2 and RSKs within minutes after the stimulation. […] After 1 h the cells were fixed and cellular localization of RSK2 or ERK1/2 (Alexa-561) was analyzed by epifluorescence microscopy. […] Statistical significance was analyzed by unpaired t-test with Welch's correction (**p≤0.01). […]
# [16] = system: RSK2; experiment: TPA stimulation: nuclear localization of RSK2 in A549 cells; assay type: cell-based; settings: A549, TPA-stimulated, 1 h; unstimulated 29.37%±1.15%
# Procedure: as §1, §2
smiles,measurement,setting,value
O=C(O)c1ccc(F)c(F)c1Nc1ccc(I)cc1Cl [ATR-002],nuclear retention of the viral NP protein (vRNPs),[1],nuclear retention
same,nuclear retention of RanBP1,[2],not detected
CC(C)CCN1c2nc(Nc3cc(F)c(O)c(F)c3)ncc2N(C)C(=O)C1C (centres unmarked) [BI-D1870],amount of M1 co-purified with Strep-PB2-vRNPs,[3],decreased amount of M1
same,GSK-3ß phosphorylation,[4],concentration dependent reduction
same,"nuclear retention of newly synthesized vRNPs, all tested viruses",[6],nuclear retention of newly synthesized vRNPs
same,EC50,[7],2.81 µM
same,ERK1/2 phosphorylation state,[8],induction of the ERK1/2 phosphorylation state
same,nuclear retention of the viral NP protein (vRNPs),[1],negatively affected the vRNP nuclear export
same,"reduction of progeny viral titers, all tested viruses",[9],80 to 90%
O=C(NOCC1CC1)c1ccc(F)c(F)c1Nc1ccc(I)cc1Cl [CI-1040],virus induced RSK activation,[10],blocked
same,phosphorylation state of NP Serine residues 269 and 392,[11],decreased phosphorylation state
CCC(=C/[C@H](C)C/C=C/C(C)=C/[C@@H](C)C(=O)[C@@H](C)[C@H](O)[C@@H](C)C/C(C)=C/C(=O)O)/C=C/[C@@H]1OC(=O)C=C[C@@H]1C [Leptomycin B],nuclear retention of the viral NP protein (vRNPs),[1],highest retention rates
same,nuclear retention of RanBP1,[2],nuclear retention of RanBP1 was only detected for the Leptomycin B treated samples
CC(=O)O[C@@H]1[C@@H](OC(C)=O)[C@@H](O)[C@H](Oc2c(-c3ccc(O)cc3)oc3cc(O)cc(O)c3c2=O)O[C@H]1C [SL0101-1],Ki,"[12]; selective, reversible, ATP-competitive",1 µM
same,IC50,"[12]; with 10 μM ATP, read-out: IC50 RSK kinase activity",0.089 µM
same,block of PDB-induced cellular phosphorylation of p140,[13],specifically block
same,EC50,[7],10.5 µM
same,nuclear retention of the viral NP protein (vRNPs),[1],nuclear retention
same,nuclear retention of RanBP1,[2],not detected
same,inhibition of proliferation of MCF-7,[14],inhibit the proliferation of MCF-7
CCCCCCCCCCCCCC(=O)O[C@@H]1[C@@H](C)[C@@]2(O)[C@@H](C=C(CO)C[C@]3(O)C(=O)C(C)=C[C@@H]23)[C@@H]2C(C)(C)[C@]12OC(C)=O [TPA],nuclear accumulation of ERK1/2,[15],48.02%±2.25%
same,nuclear accumulation of RSK2,[16],34.89%±0.67%
